From US20210284618A1, “FURANOCHALCONES AS INHIBITORS OF CYP1A1, CYP1A2 AND CYP1B1 FOR CANCER CHEMOPREVENTION” (Council of Scientific & Industrial Research, priority 2016, published 2021)

Columns and labels:
CYP2E1 = molecular target: T1, CYP2E1 (Homo sapiens, UniProt P05181); assay: CYP2E1 inhibition in Saccharosomes; assay type: biochemical
T1 construct: host or cells: yeast microsomes (Saccharosomes)
Procedure: (§1) Example 25. IC50 determination for best compound against CYP1A1, CYP1B1 and other CYPs in Saccharosomes. Compounds were serially diluted to six different concentrations with 10% DMSO in a Sero-Well white microplate. The experiment was performed in a similar way as described above in examples 23 and 24.

CYP1A1 = molecular target: T2, CYP1A1 (Homo sapiens, UniProt P04798); assay: CYP1A1 inhibition in HEK293 cells transfected with pcDNA3.1/CYP1A1 (live cells); assay type: cell-based
T2 construct: host or cells: yeast microsomes (Saccharosomes)
T2 sequence (P04798 1-512): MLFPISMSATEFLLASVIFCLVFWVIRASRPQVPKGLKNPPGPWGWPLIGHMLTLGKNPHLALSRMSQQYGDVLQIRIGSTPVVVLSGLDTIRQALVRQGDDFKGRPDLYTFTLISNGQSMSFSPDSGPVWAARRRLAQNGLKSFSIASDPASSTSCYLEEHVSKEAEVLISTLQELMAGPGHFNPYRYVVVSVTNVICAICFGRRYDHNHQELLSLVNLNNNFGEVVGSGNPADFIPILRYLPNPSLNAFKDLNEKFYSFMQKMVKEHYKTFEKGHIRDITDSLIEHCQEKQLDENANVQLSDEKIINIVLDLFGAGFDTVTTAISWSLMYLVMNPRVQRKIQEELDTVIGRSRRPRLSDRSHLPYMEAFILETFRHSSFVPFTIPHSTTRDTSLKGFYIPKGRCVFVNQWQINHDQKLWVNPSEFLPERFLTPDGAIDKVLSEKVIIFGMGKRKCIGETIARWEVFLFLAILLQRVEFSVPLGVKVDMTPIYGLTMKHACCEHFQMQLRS
Procedure: Example 26. In-vitro CYP450 inhibition in HEK293 cells transfected with pcDNA3.1/CYP1A1 against 5 μM EROD. […] The HEK293 cells used here was procured from ‘European Collection of Authenticated Cell Cultures’ (catalog number. ECACC 85120602).

CYP1B1 = molecular target: T3, CYP1B1 (Homo sapiens, UniProt Q16678); assay: In-vitro CYP450 1B1 enzyme inhibition in Saccharosomes; assay type: biochemical; set-up: purchased CYP Design Ltd; host or cells: yeast microsomes (Saccharosomes)
T3 sequence (Q16678 1-543): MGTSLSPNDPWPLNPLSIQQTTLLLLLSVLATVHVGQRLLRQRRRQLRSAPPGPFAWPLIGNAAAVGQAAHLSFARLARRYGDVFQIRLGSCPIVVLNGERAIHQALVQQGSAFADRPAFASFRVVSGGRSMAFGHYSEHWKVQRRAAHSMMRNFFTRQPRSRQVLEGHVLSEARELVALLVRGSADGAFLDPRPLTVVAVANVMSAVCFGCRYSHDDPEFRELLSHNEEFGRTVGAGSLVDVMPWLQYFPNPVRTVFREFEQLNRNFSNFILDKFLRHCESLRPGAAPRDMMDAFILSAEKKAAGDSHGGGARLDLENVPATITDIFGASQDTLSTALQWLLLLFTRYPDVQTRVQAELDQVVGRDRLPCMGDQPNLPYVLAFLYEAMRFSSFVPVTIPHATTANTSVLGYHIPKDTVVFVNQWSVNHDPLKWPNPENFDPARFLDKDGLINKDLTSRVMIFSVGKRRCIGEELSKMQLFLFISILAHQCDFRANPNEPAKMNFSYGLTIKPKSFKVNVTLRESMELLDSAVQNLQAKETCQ
Procedure: Example 24. In-vitro CYP450 1B1 enzyme inhibition in Saccharosomes™: Regenerating system consists of: 5 μl Solution A (183 mg of NADP++183 mg of glucose-6-phosphate+654 μl of 1.0 M magnesium chloride solution+9.15 ml of sterile ultra-pure water)+1 μl Solution B (250 Units of glucose-6-phosphate dehydrogenase+6.25 ml of 5 mM sodium citrate; mixed in a tube and made up to 10 ml with sterile ultra-pure water)+39 μl 0.2 M Kpi (0.6 ml of 1.0M K2HPO4+9.4 ml of 1.0 M KH2PO4 were mixed and made up to 50 ml with sterile ultra-pure water)+5 μl potential inhibitory compound.
as §1

CYP1A2 = molecular target: T4, CYP1A2 (Homo sapiens, UniProt P05177); assay: CYP1A2 inhibition in Saccharosomes; assay type: biochemical
T4 construct: host or cells: yeast microsomes (Saccharosomes)
T4 sequence (P05177 1-516): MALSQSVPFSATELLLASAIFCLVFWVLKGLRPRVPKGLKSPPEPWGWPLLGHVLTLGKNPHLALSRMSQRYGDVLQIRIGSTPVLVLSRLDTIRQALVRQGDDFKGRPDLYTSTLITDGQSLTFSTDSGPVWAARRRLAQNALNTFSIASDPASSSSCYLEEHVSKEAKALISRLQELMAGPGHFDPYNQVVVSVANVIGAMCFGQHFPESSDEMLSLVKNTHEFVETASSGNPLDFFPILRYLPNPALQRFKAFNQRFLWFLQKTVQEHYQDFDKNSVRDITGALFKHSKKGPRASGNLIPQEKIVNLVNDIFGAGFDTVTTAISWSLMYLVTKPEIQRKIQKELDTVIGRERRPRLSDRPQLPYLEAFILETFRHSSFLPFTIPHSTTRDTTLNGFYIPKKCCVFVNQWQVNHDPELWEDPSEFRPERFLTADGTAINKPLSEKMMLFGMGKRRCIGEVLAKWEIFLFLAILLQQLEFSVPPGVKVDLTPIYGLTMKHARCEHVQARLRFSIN
Procedure: as §1

T1 sequence (P05181 whole entry): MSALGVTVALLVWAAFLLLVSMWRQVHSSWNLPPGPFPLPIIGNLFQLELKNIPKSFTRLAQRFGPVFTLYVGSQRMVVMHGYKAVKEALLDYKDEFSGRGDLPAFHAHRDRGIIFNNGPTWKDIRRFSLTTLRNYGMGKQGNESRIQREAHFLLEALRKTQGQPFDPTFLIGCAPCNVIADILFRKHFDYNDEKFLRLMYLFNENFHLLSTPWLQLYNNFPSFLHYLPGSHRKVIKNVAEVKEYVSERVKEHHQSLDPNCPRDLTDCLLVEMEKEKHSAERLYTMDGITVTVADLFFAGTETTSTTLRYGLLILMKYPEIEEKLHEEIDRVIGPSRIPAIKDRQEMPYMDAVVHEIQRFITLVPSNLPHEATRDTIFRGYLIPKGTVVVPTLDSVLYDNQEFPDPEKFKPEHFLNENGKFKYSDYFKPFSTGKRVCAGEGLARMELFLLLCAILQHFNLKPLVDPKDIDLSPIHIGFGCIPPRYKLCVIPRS

Inhibition of CYP2E1 at 10 μM (CYP2E1): No Inhibition
IC50 (CYP1A1): 470 nM
% inhibition of CYP1A1 in HEK293 cells at 10 μM (CYP1A1; 10 μM, 5 μM EROD): 99.2%
inhibition at 10 μM (CYP1A1; human, HEK293 cells transfected with pcDNA3.1/CYP1A1 (live cells), probe EROD (5 μM), % inhibition of CYP1A1 in HEK293 cells at 10 μM, 10 μM, 5 μM EROD): > 80%
IC50 (CYP1B1): 660 nM
% inhibition of CYP1B1 in Saccharosomes at 10 μM (CYP1B1; 10 μM test compound, 7-ethoxyresorufin, 10 µM): 80.3%
inhibition at 10 μM (CYP1B1; human, Saccharosomes (yeast-derived) with recombinant CYP1B1, probe 7-ethoxyresorufin (5 μl of 0.1 mM), % inhibition of CYP1B1 in Saccharosomes at 10 μM, 10 μM test compound, 7-ethoxyresorufin): > 80%
IC50 (CYP1A2): 166 nM
SMILES: COc1c(C(=O)/C=C/c2cccnc2)c(O)c(OC)c2occc12 [Compound 8, 3-(4,7-dimethoxy-6-hydroxybenzofuran-5-yl)-1-(pyridin-3-yl)-3-oxopropene]
